The sequences below were run on HDMECs infected with Nm 2C4.3 (assay: Integrity of HDMEC monolayers infected with N. meningitidis (VE-cadherin at intercellular junctions, immunofluorescence)). Conditions: 1 μg/mL added 30 min after initiation of Nm infection, 2 h 30.
Assay type: cell-based, human
Protocol: FIG. 1. Exogenous ANGPTL4 exerts protective effects on dermal microvascular endothelial cells infected by N. meningitidis. A. HDMECs were infected with Nm 2C4.3 for 30 min and treated with 1 μg/mL of recombinant human ANGPTL4 for 2 h 30. Cells were fixed and stained for cellular actin, VE-cadherin and DAPI and analyzed by fluorescent microscopy. Quantifications of VE-cadherin enrichment at intercellular junctions and of intercellular spaces area were performed on 30 fields with Image J software. Kruskal-Wallis test ** P<0.001; P<0.0001. B. HDMEC were either uninfected or infected with N. meningitidis 2C4.3 for 30 min and treated with 1 μg mL−1 of recombinant human ANGPTL4, its N-terminal portion (nANGPTL4) or its C-terminal portion (cANGPTL4) for 2 h 30. Caspase-3/7 reagent was added to detect apoptosis in real time over 9 h using the IncuCyte® Live-Cell Analysis System
FIG. 2: Vascular protection is conferred by the N-terminal part of ANGPTL4. A, Schematic representation of ANGPTL4 structure. ANGPTL4 contains a N-terminal portion (nANGPTL4, aa 26-164) linked to a C-terminal portion (cANGPTL4, aa 164-406) by a cleavable linker. nANGPTL4 contains a highly conserved lipoprotein lipase (LPL) binding domain (aa 44-55), two cysteines on position 76 and 80 involved in protein oligomerization and a coiled-coil domain (aa 100-143). The C-terminal portion encodes a fibrinogen-like domain. B, HDMECs were infected with Nm 2C4.3 for 30 min and treated with 1 μg/mL of recombinant human ANGPTL4, nANGPTL4 or cANGPTL4 for 2 h 30. Cells were fixed and stained for cellular actin, VE-cadherin and DAPI and analyzed by fluorescent microscopy. B. Quantifications of VE-cadherin enrichment at intercellular junctions and of intercellular spaces area were performed on 30 fields with Image J software. Kruskal-Wallis test ** P<0.001, *** P<0.0001 of four independent experiments performed in triplicate.
FIG. 3: Vascular protection is conferred by a novel binding motif (aa 66-80) present in the N-terminal part of ANGPTL4. A, the indicated peptides were derived from nANGPTL4. B, HDMECs were infected with Nm 2C4.3 for 30 min and treated with 1 μg/mL of each peptides. Quantifications of VE-cadherin enrichment at intercellular junctions was performed on 30 fields with Image J software.
FIG. 4: Vascular protection is conferred by interaction of nANGPTL4 with Syndecan-4. A, HDMECs were infected with Nm 2C4.3 for 30 min and treated with 1 μg/mL of recombinant human ANGPTL4, nANGPTL4 or cANGPTL4 in the absence or in the presence of anti-SDC4 antibody for 2 h 30. Cells were fixed and stained for cellular actin, VE-cadherin and DAPI and analysed by fluorescent microscopy. Quantifications of VE-cadherin enrichment at intercellular junctions and of intercellular spaces area were performed on 30 fields with Image J software. Kruskal-Wallis test ** P<0.001, **** P<0.00001, ns1 P=0.2172; ns2 P>0.999 of four independent experiments performed in triplicate. B, HDMECs were transfected with small interfering RNA (siRNA) against SDC4 or non-targeting siRNA controls for 48 h, infected with Nm 2C4.3 for 30 min and treated with 1 μg/mL of recombinant human ANGPTL4, for 2 h 30. Quantifications of VE-cadherin enrichment at intercellular junctions and of intercellular spaces area were performed on 30 fields with Image J software. Kruskal-Wallis test ** P<0.001, *** P<0.0001, of two independent experiments performed in triplicate.
The day of infection, a suspension of the bacteria from an overnight culture on GCB agar plate was adjusted to OD600=0.05 and incubated for 2 h at 37° C. in a pre-warmed cell culture medium. Cells were infected with bacteria at a multiplicity of infection (MOI) of 100 bacteria per cell (OD=0.1) for 30 minutes, washed twice to remove non-adherent bacteria and infection was allowed to proceed for various periods of time. Cells were then washed and fixed in 4% paraformaldehyde for immunofluorescence analysis. […]

| Sequence | protective effect on monolayer integrity (adherens junctions, cell detachment) of infected HDMECs |
| --- | --- |
| LSALERRLSACGS [Peptide P12] | inhibits infection-induced damages |
| LSALERRLSA (Peptide P8) | no effect |
| REHAERTRSQLSALERRL (Peptide P5) | no effect |
| PEVLHSLQTQLKAQNSRIQQLFHKVAQQQRHLEKQHLRIQHLQSQFGLLD (Peptide P2) | no significant effect |
| WDEMNVLAHGLLQLGQGL (Peptide P3) | no protective effects |
| RTRSQLSALERRLSA (Peptide P7) | no effect |
| SALERRLSACGSAC [Peptide P13] | inhibits infection-induced damages |
| WDEMNVLAHGLLQLGQGLREHAERTRSQLSALERRLSAAGSAAQGT (Peptide P1 C76A, C80A) [Peptide P1 C76A/C80A] | efficiently provided cytoprotection to infection-induced damages |
| QLSALERRLSACGSAC (Peptide P6) | completely inhibited infection-induced damages |
| REHAERTRSQLSALERRLSACGSACQGT (Peptide P4) | as efficient as P1 in providing protection |

Source: patent US20250163116A1, “NEW METHOD TO TREAT INFECTIOUS DISEASES” (INSERM (INSTITUT NATIONAL DE LA SANTÉ ET DE LA RECHERCHE …, priority 2022, published 2025)
